Among the data in patent US20200368315A1, “ANTIMICROBIAL PEPTIDES AND ADMIXTURES THEREOF SHOWING ANTIMICROBIAL ACTIVITY AGAINST GRAM-NEGATIVE PATHOGENS” (priority 2017, published 2020) are FICI and IC50 values, retold here.

SMILES strings stand for the structures. “And” between values parts separate entries of the source, which are not always exact repeats. Equal values may be shown once.

Series [1] relates to E. aerogenes LMG 02094. The series is classed as cell-based, Enterobacter aerogenes. To be noted: nisin + GNP. The source says: (§1) The test of synergistic effect was processed by conducting standard chequerboard broth microdilution assays. Nisin (Drug X) was loaded two fold serially diluted from row 1 to 10 in X-axis while GNPs (Drug Y) were loaded in eight two fold serially diluted concentrations from line A to H in Y-axis (FIG. 1). The original concentrations of peptides were MICs of each. Row 11 are used as growth control with no peptide was included, while row 12 with MHB medium-only wells was included as a sterility control as referred before. 50 uL fresh bacterial suspension was added to well 1-11 and final volume of each well on the plate is 100 uL.
(§2) To determine whether the combination therapy is additive, synergistic or antagonistic, fractional inhibitory concentration (FIC) indices were calculated. FICI=FICa+FICb=MICac/MICa+MICbc/MICb. The MICa/MICb is the MIC of compound A/B alone. MICac is the MIC of compound A in combination with compound B and MICbc is the MIC of compound B when it was combination with compound A. […]. FICa is FIC of compound A while FICb is FIC of compound B. The FICI is interpreted as follows: synergistic, FICI≤0.5; additive, 0.5<FICI<1; indifferent, 1<FICI<2; antagonistic, FICI>2.

Series [2] relates to E. coli LMG15862. The class given is cell-based, Escherichia coli. To be noted: nisin + GNP.
Text: as §1, §2

Series [3] in a line: Cell viability (ATP levels, CellTiter-Glo). To be noted: human. Here is the method: ATP levels were measured by adding 50 μL of CellTiter-Glo reagent to each well and after 5 minutes of incubation luminescence was measured with SpectraMax i3.
96-well plates were seeded with HEK293 cells at concentration of 30,000 cells per well in 100 μL of DMEM growth media supplemented with 1% NEAA and 10% FBS. Border wells were filled with 100 μL of sterile PBS. The next day compounds were added to cells. Compounds were first 2× diluted in 96-well V-bottom plate in PBS. After that compounds were mixed with media in 96-deep-well plate for final concentrations. Growth media from 3 plates was aspirated and replaced with 100 μL of prepared compounds. Compounds were tested in duplicate. ATP levels were measured by adding 50 μL of CellTiter-Glo reagent to each well and after 5 minutes of incubation luminescence was measured with SpectraMax i3. […] The potential effects were then calculated and presented as IC50 values (μg/mL).
For orientation: In ATP-based viability assays light output follows the ATP content of the culture.

As for `CC[C@@H](C)[C@@H](NC(=O)[C@@H](CCCNC(=N)N)NC(=O)[C@@H](CCCNC(=N)N)NC(=O)[C@@H](Cc1ccccc1)NC(=O)[C@@H](CC(C)C)NC(=O)[C@@H](CCCNC(=N)N)NC(=O)[C@H](N)CCCNC(=N)N)C(=O)N[C@H](CC(C)C)C(=O)N[C@H](CCCNC(=N)N)C(=O)N[C@H](Cc1c[nH]c2ccccc12)C(=O)N[C@H](CC(C)C)C(N)=O` [GNP-D6], the FICI in series [1] and in series [2] was 0.375 each time.

The term IC50 denotes the concentration that gives 50% inhibition. Lower therefore signals greater potency. For the molecule `CN[C@H](CC(C)C)C(=O)N[C@H]1C(=O)N[C@@H](CC(N)=O)C(=O)N[C@H]2C(=O)N[C@H]3C(=O)N[C@H](C(=O)N[C@H](C(=O)O)c4cc(O)cc(O)c4-c4cc3ccc4O)[C@H](O)c3ccc(c(Cl)c3)Oc3cc2cc(c3O[C@@H]2O[C@H](CO)[C@@H](O)[C@H](O)[C@H]2O[C@H]2C[C@](C)(N)[C@H](O)[C@H](C)O2)Oc2ccc(cc2Cl)[C@H]1O` [Vancomycin, reference compound], the IC50 in series [3] is > 44.2 µM and > 64 µg/mL.
